18 compounds from US20240050428A1 (Cullgen (Shanghai), Inc., priority 2020, published 2024) can be followed below.

In one assay the test system is MOLM-13 cells. Briefly: Cell viability assay (CellTiter-Glo) in MOLM-13 cells, alone or with gilteritinib. The class given is cell-based. Particulars: Homo sapiens, MOLM-13 cells, three days, CellTiter-Glo.
For a further assay, the system named is MV4;11 cells. The assay can be described thus: Cell viability assay (CellTiter-Glo) in MV4;11 cells, alone or with gilteritinib. It counts as cell-based. Particulars: Homo sapiens, MV4;11 cells, three days, CellTiter-Glo, read-out: MV4. A general note: ATP-based viability assays read luminescence as a measure of living cells.
Setting [1] is: MOLM-13, 72 h, compound alone (without gilteritinib), read-out: MOLM-13 IC50.
The mark [2] stands for this setting: MOLM-13, 72 h, compound with gilteritinib 20 nM, read-out: MOLM-13 IC50 gilteritinib.
[3] abbreviates: MV4-11, 72 h, compound alone (without gilteritinib), 11 IC50.
[4] abbreviates: MV4-11, 72 h, compound with gilteritinib 10 nM, 11 IC50 gilteritinib.

Read-outs that look alike come from different tables or passages of the source.

`O=C1CCC(N2C(=O)c3ccc(NCCC[C@H]4C[C@H](n5cc(-c6cccc(N7CCC7)n6)cn5)C4)cc3C2=O)C(=O)N1` (stereo partly drawn) [GS-451, 5-((3-(trans-3-(4-(6-(azetidin-1-yl)pyridin-2-yl)-1H-pyrazol-1-yl)cyclobutyl)propyl)amino)-2-(2,6-dioxopiperidin-3-yl)isoindoline-1,3-dione]: the IC50 with MOLM-13 cells (setting [1]) is 100 to 1000 nM; in the assay on MOLM-13 cells (setting [2]) it was 10 to 100 nM; in the assay with MV4;11 cells (setting [3]) it was 10 to 100 nM; with MV4;11 cells (setting [4]), 10 to 100 nM.

For the compound `O=C1CCC(N2C(=O)c3ccc(NC[C@H]4C[C@H](n5cc(N6CCC(O)CC6)c(C6CC6)n5)C4)cc3C2=O)C(=O)N1` (stereo partly drawn) [GS-452, 5-(((trans-3-(3-cyclopropyl-4-(4-hydroxypiperidin-1-yl)-1H-pyrazol-1-yl)cyclobutyl)methyl)amino)-2-(2,6-dioxopiperidin-3-yl)isoindoline-1,3-dione], the IC50 in the assay on MOLM-13 cells (setting [1]), in the assay on MOLM-13 cells (setting [2]), with MV4;11 cells (setting [3]) and in the assay with MV4;11 cells (setting [4]) was above 1000 nM throughout.

As to `CC(C)c1cccc(-c2cnn([C@H]3C[C@H](CCCNc4ccc5c(c4)C(=O)N(C4CCC(=O)NC4=O)C5=O)C3)c2)n1` (stereo partly drawn) [GS-453, 2-(2,6-dioxopiperidin-3-yl)-5-((3-(trans-3-(4-(6-isopropylpyridin-2-yl)-1H-pyrazol-1-yl)cyclobutyl)propyl)amino)isoindoline-1,3-dione], the IC50 with MOLM-13 cells (setting [1]) lay in the range of 100 to 1000 nM; in the assay on MOLM-13 cells (setting [2]), 10 to 100 nM; in the assay with MV4;11 cells (setting [3]) it was 10 to 100 nM; in the assay on MV4;11 cells (setting [4]) it was 10 to 100 nM.

Consider `CN1CCC(Nc2cccc(-c3cn([C@H]4C[C@H](CNc5ccc6c(c5)C(=O)N(C5CCC(=O)NC5=O)C6=O)C4)nc3C3CC3)n2)CC1` (stereo partly drawn) [GS-454, 5-(((trans-3-(3-cyclopropyl-4-(6-((1-methylpiperidin-4-yl)amino)pyridin-2-yl)-1H-pyrazol-1-yl)cyclobutyl)methyl)amino)-2-(2,6-dioxopiperidin-3-yl)isoindoline-1,3-dione], for which the IC50 in the assay with MOLM-13 cells (72 h, compound alone (without gilteritinib), read-out: MOLM-13 IC50) was above 1000 nM; in the assay with MOLM-13 cells (72 h, compound with gilteritinib 20 nM, read-out: MOLM-13 IC50 gilteritinib) it was 100 to 1000 nM; with MV4;11 cells (72 h, compound alone (without gilteritinib), 11 IC50) it was above 1000 nM; in the assay on MV4;11 cells (72 h, compound with gilteritinib 10 nM, 11 IC50 gilteritinib), 100 to 1000 nM.

As for `O=C1CCC(N2C(=O)c3ccc(NC[C@H]4C[C@H](n5cc(N6CCNCC6)c(C6CC6)n5)C4)cc3C2=O)C(=O)N1` (stereo partly drawn) [GS-455, 5-(((trans-3-(3-cyclopropyl-4-(piperazin-1-yl)-1H-pyrazol-1-yl)cyclobutyl)methyl)amino)-2-(2,6-dioxopiperidin-3-yl)isoindoline-1,3-dione], the IC50 in the assay on MOLM-13 cells (setting [1]), in the assay on MOLM-13 cells (setting [2]), in the assay on MV4;11 cells (setting [3]) and with MV4;11 cells (setting [4]) was above 1000 nM throughout.

`O=C1CCC(N2C(=O)c3ccc(NC[C@H]4C[C@H](n5cc(-c6ccc(Cl)cc6)c(C6CC6)n5)C4)cc3C2=O)C(=O)N1` (stereo partly drawn) [GS-456, 5-(((trans-3-(4-(4-chlorophenyl)-3-cyclopropyl-1H-pyrazol-1-yl)cyclobutyl)methyl)amino)-2-(2,6-dioxopiperidin-3-yl)isoindoline-1,3-dione]: the IC50 in the assay on MOLM-13 cells (setting [1]) was above 1000 nM; in the assay on MOLM-13 cells (setting [2]), 10 to 100 nM; in the assay with MV4;11 cells (setting [3]), 100 to 1000 nM; in the assay with MV4;11 cells (setting [4]), 10 to 100 nM.

As to `O=C1CCC(N2C(=O)c3ccc(NC[C@H]4C[C@H](n5cc(-c6cccc(Cl)c6)c(C6CC6)n5)C4)cc3C2=O)C(=O)N1` (stereo partly drawn) [GS-457, 5-(((trans-3-(4-(3-chlorophenyl)-3-cyclopropyl-1H-pyrazol-1-yl)cyclobutyl)methyl)amino)-2-(2,6-dioxopiperidin-3-yl)isoindoline-1,3-dione], the IC50 fell in the range of 100 to 1000 nM in the assay with MOLM-13 cells (setting [1]), 10 to 100 nM in the assay on MOLM-13 cells (setting [2]), 10 to 100 nM with MV4;11 cells (setting [3]) and 10 to 100 nM in the assay on MV4;11 cells (setting [4]).

On to `O=C1CCC(N2C(=O)c3ccc(NC[C@H]4C[C@H](n5cc(-c6ccccc6Cl)c(C6CC6)n5)C4)cc3C2=O)C(=O)N1` (stereo partly drawn) [GS-458, 5-(((trans-3-(4-(2-chlorophenyl)-3-cyclopropyl-1H-pyrazol-1-yl)cyclobutyl)methyl)amino)-2-(2,6-dioxopiperidin-3-yl)isoindoline-1,3-dione], for which the IC50 in the assay on MOLM-13 cells (setting [1]) was 10 to 100 nM; in the assay with MOLM-13 cells (setting [2]), below 10 nM; in the assay on MV4;11 cells (setting [3]), 10 to 100 nM; in the assay with MV4;11 cells (setting [4]), below 10 nM.

On to `CN1CCN(c2cn([C@H]3C[C@H](CNc4ccc5c(c4)C(=O)N(C4CCC(=O)NC4=O)C5=O)C3)nc2C2CC2)CC1` (stereo partly drawn) [GS-459, 5-(((trans-3-(3-cyclopropyl-4-(4-methylpiperazin-1-yl)-1H-pyrazol-1-yl)cyclobutyl)methyl)amino)-2-(2,6-dioxopiperidin-3-yl)isoindoline-1,3-dione], for which the IC50 in the assay on MOLM-13 cells (setting [1]), with MOLM-13 cells (setting [2]), in the assay on MV4;11 cells (setting [3]) and in the assay with MV4;11 cells (setting [4]) was above 1000 nM in each case.

In the case of `CN1CCC(c2cn([C@H]3C[C@H](CNc4ccc5c(c4)C(=O)N(C4CCC(=O)NC4=O)C5=O)C3)nc2C2CC2)CC1` (stereo partly drawn) [GS-460, 5-(((trans-3-(3-cyclopropyl-4-(1-methylpiperidin-4-yl)-1H-pyrazol-1-yl)cyclobutyl)methyl)amino)-2-(2,6-dioxopiperidin-3-yl)isoindoline-1,3-dione], the IC50 with MOLM-13 cells (setting [1]), with MOLM-13 cells (setting [2]), in the assay with MV4;11 cells (setting [3]) and in the assay on MV4;11 cells (setting [4]) was above 1000 nM throughout.

As to `O=C1CCC(N2C(=O)c3ccc(CNC4CC(n5cc(-c6cnc7ccccc7n6)c(C6CC6)n5)C4)cc3C2=O)C(=O)N1` (stereo not drawn) [GS-461, 5-(((3-(3-cyclopropyl-4-(quinoxalin-2-yl)-1H-pyrazol-1-yl)cyclobutyl)amino)methyl)-2-(2,6-dioxopiperidin-3-yl)isoindoline-1,3-dione], the IC50 in the assay with MOLM-13 cells (setting [1]), in the assay with MOLM-13 cells (setting [2]), in the assay on MV4;11 cells (setting [3]) and with MV4;11 cells (setting [4]) was above 1000 nM each time.

As for `COc1ccc(-c2cnn([C@H]3C[C@H](CCCNc4ccc5c(c4)C(=O)N(C4CCC(=O)NC4=O)C5=O)C3)c2)nc1` (stereo partly drawn) [GS-462, 2-(2,6-dioxopiperidin-3-yl)-5-((3-(trans-3-(4-(5-methoxypyridin-2-yl)-1H-pyrazol-1-yl)cyclobutyl)propyl)amino)isoindoline-1,3-dione], the IC50 in the assay on MOLM-13 cells (setting [1]) was in the range of 100 to 1000 nM; with MOLM-13 cells (setting [2]), 10 to 100 nM; in the assay with MV4;11 cells (setting [3]) it was 100 to 1000 nM; in the assay with MV4;11 cells (setting [4]), 10 to 100 nM.

Take `CN1CCN(c2ccc3ncc(-c4cn([C@H]5C[C@H](CNc6ccc7c(c6)C(=O)N(C6CCC(=O)NC6=O)C7=O)C5)nc4C4CC4)nc3c2)CC1` (stereo partly drawn) [GS-463, 5-(((trans-3-(3-cyclopropyl-4-(7-(4-methylpiperazin-1-yl)quinoxalin-2-yl)-1H-pyrazol-1-yl)cyclobutyl)methyl)amino)-2-(2,6-dioxopiperidin-3-yl)isoindoline-1,3-dione]: the IC50 in the assay with MOLM-13 cells (setting [1]) was 10 to 100 nM; with MOLM-13 cells (setting [2]) it was below 10 nM; in the assay with MV4;11 cells (setting [3]), 10 to 100 nM; in the assay on MV4;11 cells (setting [4]) it was below 10 nM.

Regarding `O=C1CCC(N2C(=O)c3ccc(NC[C@H]4C[C@H](n5cc(-c6cnc7ccc(N8CCOCC8)cc7n6)c(C6CC6)n5)C4)cc3C2=O)C(=O)N1` (stereo partly drawn) [GS-464, 5-(((trans-3-(3-cyclopropyl-4-(7-morpholinoquinoxalin-2-yl)-1H-pyrazol-1-yl)cyclobutyl)methyl)amino)-2-(2,6-dioxopiperidin-3-yl)isoindoline-1,3-dione], the IC50 in the assay with MOLM-13 cells (setting [1]), in the assay with MOLM-13 cells (setting [2]), in the assay on MV4;11 cells (setting [3]) and in the assay with MV4;11 cells (setting [4]) was below 10 nM each time.

`Cn1cccc(-c2cn([C@H]3C[C@H](CNc4ccc5c(c4)C(=O)N(C4CCC(=O)NC4=O)C5=O)C3)nc2C2CC2)c1=O` (stereo partly drawn) [GS-465, 5-(((trans-3-(3-cyclopropyl-4-(1-methyl-2-oxo-1,2-dihydropyridin-3-yl)-1H-pyrazol-1-yl)cyclobutyl)methyl)amino)-2-(2,6-dioxopiperidin-3-yl)isoindoline-1,3-dione]: the IC50 was above 1000 nM in the assay on MOLM-13 cells (setting [1]), 10 to 100 nM with MOLM-13 cells (setting [2]), above 1000 nM in the assay on MV4;11 cells (setting [3]) and 100 to 1000 nM in the assay with MV4;11 cells (setting [4]).

Consider `O=C1CCC(N2C(=O)c3ccc(NC[C@H]4C[C@H](n5cc(-c6cccc(C7CC7)n6)c(C6CC6)n5)C4)cc3C2=O)C(=O)N1` (stereo partly drawn) [GS-466, 5-(((trans-3-(3-cyclopropyl-4-(6-cyclopropylpyridin-2-yl)-1H-pyrazol-1-yl)cyclobutyl)methyl)amino)-2-(2,6-dioxopiperidin-3-yl)isoindoline-1,3-dione], for which the IC50 in the assay with MOLM-13 cells (setting [1]) fell in the range of 100 to 1000 nM; in the assay on MOLM-13 cells (setting [2]) it was 10 to 100 nM; in the assay with MV4;11 cells (setting [3]), 10 to 100 nM; in the assay on MV4;11 cells (setting [4]), 10 to 100 nM.

For `O=C1CCC(N2C(=O)c3ccc(NC[C@H]4C[C@H](n5cc(-c6ncccc6C6CC6)c(C6CC6)n5)C4)cc3C2=O)C(=O)N1` (stereo partly drawn) [GS-467, 5-(((trans-3-(3-cyclopropyl-4-(3-cyclopropylpyridin-2-yl)-1H-pyrazol-1-yl)cyclobutyl)methyl)amino)-2-(2,6-dioxopiperidin-3-yl)isoindoline-1,3-dione], the IC50 was 10 to 100 nM with MOLM-13 cells (setting [1]), 10 to 100 nM in the assay on MOLM-13 cells (setting [2]), 10 to 100 nM in the assay on MV4;11 cells (setting [3]) and below 10 nM in the assay with MV4;11 cells (setting [4]).

Take `O=C1CCC(N2C(=O)c3ccc(NC[C@H]4C[C@H](n5cc(C6CCCCC6)c(C6CC6)n5)C4)cc3C2=O)C(=O)N1` (stereo partly drawn) [GS-468, 5-(((trans-3-(4-cyclohexyl-3-cyclopropyl-1H-pyrazol-1-yl)cyclobutyl)methyl)amino)-2-(2,6-dioxopiperidin-3-yl)isoindoline-1,3-dione]: the IC50 in the assay with MOLM-13 cells (setting [1]) was in the range of 100 to 1000 nM; with MOLM-13 cells (setting [2]) it was 10 to 100 nM; in the assay with MV4;11 cells (setting [3]), 10 to 100 nM; with MV4;11 cells (setting [4]), 10 to 100 nM.
